From patent US9012446B2, “Amino-oxazines and amino-dihydrothiazine compounds as beta-secretase modulators and methods of use” (Amgen Inc., priority 2010, dated 2015)
Several values for one entry are separate records, joined by “and”; a condition that tells them apart may be missing. Identical values can stand only once. Like-named read-outs stand apart in the source and are kept apart here.

Legend:
Aβ40 = test: In vitro BACE cell-based assay (Aβ40 sandwich ELISA, cells stably expressing APP)
Description: In Vitro BACE Cell-Based Assay […] Cells stably expressing Amyloid Precursor Protein (APP) were plated at a density of 40K cells/well in 96 well plates (Costar). The cells were cultivated for 24 hours at 37° C. and 5% CO2 in DMEM supplemented with 10% FBS. The test compounds were then added to cells in 10-point dose response concentrations with the starting concentration being either 100 μM or 10 μM. The compounds were diluted from stock solutions in DMSO and the final DMSO concentration of the test compounds on cells was 0.1%. […] The IC50 of the compound was calculated from the percent of control or percent inhibition of Aβ40 as a function of the concentration of the test compound. The sandwich ELISA to detect Aβ40 was performed in 96 well microtiter plates, which were pre-treated with goat anti-rabbit IgG (Pierce). […] The optimal concentration for the pAb40 antibody was 3 μg/ml in Superblock/TBS (Pierce) that was supplemented with 0.05% Tween 20 (Sigma). […] Cellular supernatants were incubated with the capture antibody for 3 h at 4° C., followed by 3 wash steps in TBS-tween (0.05%). The detecting antibody incubation was for 2 h at 4° C., again followed by the wash steps as described previously. The final readout of the ELISA is Time-Resolved Fluorescence (counts per minute) using Delfia reagents Streptavidin-Europium and Enhancement solutions (Perkin Elmer) and the Victor 2 multilabel counter (Perkin Elmer).

BACE = BACE (Homo sapiens, UniProt P56817); test: In vitro enzymatic BACE FRET assay; format: biochemical; conditions: average IC50, enzyme assay; read-out: BACE 1 FRET assay
BACE, sequence (P56817 46-501, species assumed): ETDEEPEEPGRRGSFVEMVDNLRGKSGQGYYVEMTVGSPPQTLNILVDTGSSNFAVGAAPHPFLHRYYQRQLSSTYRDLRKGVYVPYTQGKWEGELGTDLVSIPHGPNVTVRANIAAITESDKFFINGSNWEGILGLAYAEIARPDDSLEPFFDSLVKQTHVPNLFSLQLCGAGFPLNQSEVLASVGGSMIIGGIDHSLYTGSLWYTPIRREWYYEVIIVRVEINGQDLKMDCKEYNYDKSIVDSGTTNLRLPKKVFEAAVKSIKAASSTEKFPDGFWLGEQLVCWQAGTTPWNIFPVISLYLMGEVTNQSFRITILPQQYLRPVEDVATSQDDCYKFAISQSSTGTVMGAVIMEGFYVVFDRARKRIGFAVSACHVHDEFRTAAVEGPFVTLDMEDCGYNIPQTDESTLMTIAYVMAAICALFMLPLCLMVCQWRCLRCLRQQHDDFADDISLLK
Description: In Vitro Enzymatic BACE FRET (Fluorescence Resonance Energy Transfer) Assay (Enzyme Assay Data in the Example Table I) The assay buffer used in this screen is 0.05 M acetate, pH 4.2, 10% DMSO final, 100 uM genapol (which is a nonionic detergent, below its Critical Micelle Concentration). The beta secretase enzyme (0.2 nM) is pre-incubated for one hour with inhibitors, typically in about 1 uL of DMSO according to a serial dilution, are added thereto. This assay is effectively started by the addition of FRET substrate (50 nM) and the combination is incubated for one hour. The FRET assay is terminated with by addition of Tris buffer, which raises the pH to neutrality, and the fluorescence is determined. The FRET substrate is a peptide with commercially available fluorophore and quencher, on opposite sides of the BACE cleavage site. Proteolytic cleavage of the FRET substrate releases quenching of fluorescence (excitation 488 nm and emission […]).

[1] = Homo sapiens, HEK293, average IC50, read-out: HEK cell assay
[2] = Homo sapiens, HEK293, average IC50, cell assay, HEK cells

Row | Structure (SMILES) | IC50 (Aβ40; [1]) [nM] | IC50 (BACE) | IC50 (Aβ40; [2]) [nM] | IC50 (Aβ40; average IC50, cell assay, HEK cells) [nM]
1 | CC(C)(C)C#Cc1ccc2c(c1)[C@@]1(COCC(N)=N1)c1cc(C#CC(C)(C)C)cnc1O2 [Example 53, (S)-3,7-bis(3,3-dimethylbut-1-ynyl)-2′,6′-dihydrospiro[chromeno[2,3-b]pyridine-5,3′-[1,4]oxazin]-5′-amine] | 25.1 | 5.4 nM | – | –
2 | NC1=N[C@@]2(COC1)c1cc(-c3cccnc3F)ccc1Oc1c2cc(N2CCOCC2)nc1F [Example 58, (S)-1-fluoro-7-(2-fluoropyridin-3-yl)-3-morpholino-2′,6′-dihydrospiro[chromeno[2,3-c]pyridine-5,3′-[1,4]oxazin]-5′-amine 2,2,2-trifluoroacetate] | 0.7 | 0.5 nM | – | –
3 | CC(C)(C)COc1cc2c(c(F)n1)Oc1ccc(-c3cccnc3F)cc1[C@]21COCC(N)=N1 [Example 59B, (R)-1-fluoro-7-(2-fluoropyridin-3-yl)-3-(neopentyloxy)-2′,6′-dihydrospiro[chromeno[2,3-c]pyridine-5,3′-[1,4]oxazin]-5′-amine] | 370 | 84.9 nM | – | –
4 | CC(C)(C)COc1cnc2c(c1)[C@]1(CCOC(N)=N1)c1cc(-c3cccnc3F)ccc1O2 [Example 62, (S)-7-(2-fluoropyridin-3-yl)-3-(neopentyloxy)-5′,6′-dihydrospiro[chromeno[2,3-b]pyridine-5,4′-[1,3]oxazin]-2′-amine] | 4.8 | 2.5 nM | – | –
5 | CC#Cc1cncc(-c2ccc3c(c2)[C@@]2(COCC(N)=N2)c2cc(C4=CCCOC4)cc(F)c2O3)c1 [Example 66, (S)-2′-(5,6-dihydro-2H-pyran-3-yl)-4′-fluoro-7′-(5-(prop-1-ynyl)pyridin-3-yl)-2,6-dihydrospiro[[1,4]oxazine-3,9′-xanthen]-5-amine] | – | 0.5 nM | 1.5 | –
6 | CC(C)(C)COc1ccc2c(c1)[C@]1(COCC(N)=N1)c1cc(-c3cccnc3F)ccc1O2 [Example 67, (3S)-2′-(2,2-dimethylpropoxy)-7′-(2-fluoro-3-pyridinyl)-6H-spiro[1,4-oxazine-3,9′-xanthen]-5-amine] | 13.1 | 2 nM and 0.7 nM | 15.5 | –
7 | NC1=N[C@@]2(COC1)c1cc(-c3cccnc3F)ccc1Oc1ncc(N3CC[C@@H](F)C3)cc12 [Example 68, (S)-7-(2-fluoropyridin-3-yl)-3-((R)-3-fluoropyrrolidin-1-yl)-2′,6′-dihydrospiro[chromeno[2,3-b]pyridine-5,3′-[1,4]oxazin]-5′-amine] | – | 1.4 nM | 1.2 | –
8 | CC(C)(F)COc1cc(F)c2c(c1)[C@]1(CCSC(N)=N1)c1cc(-c3cccnc3F)ccc1O2 [Example 204, (S)-4′-fluoro-2′-(2-fluoro-2-methylpropoxy)-7′-(2-fluoropyridin-3-yl)-5,6-dihydrospiro[[1,3]thiazine-4,9′-xanthen]-2-amine] | 11.2 | 2.8 nM | – | –
9 | NC1=N[C@@]2(CCO1)c1cc(-c3cccnc3F)ccc1Oc1c2cc(-c2cccnc2)nc1F [Example 241, (S)-1-fluoro-7-(2-fluoropyridin-3-yl)-3-(pyridin-3-yl)-5′,6′-dihydrospiro[chromeno[2,3-c]pyridine-5,4′-[1,3]oxazin]-2′-amine] | 0.9 | 0.6 nM | – | –
10 | NC1=N[C@]2(COC1)c1cc(-c3cccnc3F)ccc1Oc1cnc(-c3ccnc(F)c3)cc12 [compound 70] | – | 52.4 nM | 268 | –
11 | NC1=N[C@@]2(COC1)c1cc(-c3cccnc3F)ccc1Oc1cnc(C3=CCOCC3)cc12 [compound 71] | – | 0.4 nM | 1.2 | –
12 | CC#Cc1cncc(-c2ccc3c(c2)[C@@]2(COCC(N)=N2)c2cc(-c4ccnc(F)c4)ncc2O3)c1 [compound 75] | – | 0.5 nM | 2.8 | –
13 | NC1=N[C@@]2(COC1)c1cc(-c3cncnc3)ccc1Oc1cnc(-c3ccnc(F)c3)cc12 [compound 78] | – | 0.5 nM | 1.1 | –
14 | NC1=N[C@@]2(COC1)c1cc(-c3cncnc3)ccc1Oc1cnc(-c3ccc(F)c(F)c3)cc12 [compound 79] | – | 0.3 nM | 0.8 | –
15 | NC1=N[C@@]2(COC1)c1cc(-c3cccnc3F)ccc1Oc1cnc([C@H]3CCCOC3)cc12 [compound 80] | – | 3.9 nM | 5.8 | –
16 | NC1=N[C@@]2(COC1)c1cc(-c3cccnc3F)ccc1Oc1cnc([C@@H]3CCCOC3)cc12 [compound 81] | – | 3.7 nM | 4.1 | –
17 | CC1(COc2cc(F)c3c(c2)[C@@]2(COCC(N)=N2)c2cc(-c4cccnc4F)ccc2O3)COC1 [compound 82] | – | 43 nM | 121 | –
18 | CC1(COc2cc(F)c3c(c2)[C@]2(COCC(N)=N2)c2cc(-c4cccnc4F)ccc2O3)COC1 [compound 83] | – | 0.4 nM | 0.4 | –
19 | NC1=N[C@@]2(COC1)c1cc(-c3cccnc3F)ccc1Oc1c(F)cc(N3CC[C@@H](F)C3)cc12 [compound 85] | – | 39.7 nM | 101 | –
20 | CC1(C#Cc2cnc3c(c2)[C@]2(COCC(N)=N2)c2cc(-c4cccnc4F)ccc2O3)COC1 [compound 87] | – | 2 nM | 1.3 | –
21 | CC1(C#Cc2cnc3c(c2)[C@@]2(COCC(N)=N2)c2cc(-c4cccnc4F)ccc2O3)COC1 [compound 88] | – | 332 nM | 198 | –

Row | Structure (SMILES) | IC50 (Aβ40; [1]) [nM] | IC50 (BACE) | IC50 (Aβ40; [2]) [nM] | IC50 (Aβ40; average IC50, cell assay, HEK cells) [nM]
22 | NC1=N[C@@]2(COC1)c1cc(-c3cc(Cl)ccc3F)ccc1Oc1ncc(N3CC[C@@H](F)C3)cc12 [compound 92] | – | 0.6 nM | 1.9 | –
23 | NC1=N[C@@]2(COC1)c1cc(-c3cc(Cl)ccc3F)ccc1Oc1ncc(N3CCOCC3)cc12 [compound 93] | – | 0.7 nM | 3.9 | –
24 | NC1=N[C@@]2(COC1)c1cc(-c3cc(Cl)ccc3F)ccc1Oc1ncc(N3CC4CCC(C3)O4)cc12 [compound 94] | – | 1.3 nM | 1.3 | –
25 | CC1(C#Cc2cnc3c(c2)[C@]2(COCC(N)=N2)c2cc(-c4cc(Cl)ccc4F)ccc2O3)COC1 [compound 95] | – | 0.5 nM | 1.2 | –
26 | CC(C)(C)C#Cc1cnc2c(c1)[C@]1(COCC(N)=N1)c1cc(-c3cncnc3)c(F)cc1O2 [compound 96] | – | 1.2 nM | 0.6 | –
27 | CC(C)(C)C#Cc1cnc2c(c1)[C@@]1(COCC(N)=N1)c1cc(-c3cncnc3)c(F)cc1O2 [compound 97] | – | 419 nM | 273 | –
28 | NC1=NC2(CCS1)c1cc(-c3cncnc3)ccc1Oc1ccc(-c3cncnc3)cc12 [compound 98] | – | 257 nM | 635 | –
29 | NC1=NC2(CCS1)c1cc(-c3cccnc3)ccc1Oc1ccc(-c3cccnc3)cc12 [compound 99] | – | 81.8 nM | 118 | –
30 | NC1=N[C@]2(CCO1)c1cc(-c3cccnc3F)ccc1Oc1cnc(-c3cccnc3F)cc12 [compound 100] | – | 49.6 nM | – | 184
31 | NC1=NC2(CCO1)c1cc(-c3cccnc3F)ccc1Oc1c2cc(-c2cccnc2F)nc1F (centres unmarked) [compound 101] | – | 14.6 nM | 45.9 | –
32 | NC1=N[C@]2(CCO1)c1cc(-c3cccnc3F)ccc1Oc1c2cc(-c2cccnc2F)nc1F [compound 104] | – | 1740 nM | 1900 | –
33 | NC1=N[C@@]2(CCO1)c1cc(-c3cccnc3F)ccc1Oc1c2cc(-c2cccnc2F)nc1F [compound 105] | – | 20.6 nM | 24.2 | –
34 | NC1=N[C@]2(CCO1)c1cc(-c3cccnc3F)ccc1Oc1c2cc(-c2ccnc(F)c2)nc1F [compound 106] | – | 1740 nM | 2640 | –
35 | NC1=N[C@@]2(CCO1)c1cc(-c3cccnc3F)ccc1Oc1c2cc(C2=CCOCC2)nc1F [compound 108] | – | 0.6 nM | 0.6 | –
36 | NC1=N[C@]2(CCO1)c1cc(-c3cccnc3F)ccc1Oc1cnc(C3=CCOCC3)cc12 [compound 109] | – | 2820 nM | 579 | –
37 | NC1=N[C@@]2(COC1)c1cc(-c3cncc(F)c3)ccc1Oc1cnc(-c3cncc(F)c3)cc12 [compound 112] | – | 0.5 nM | 1.5 | –
38 | NC1=N[C@@]2(COC1)c1cc(-c3cncc(F)c3)ccc1Oc1cnc(-c3ccnc(F)c3)cc12 [compound 113] | – | 0.5 nM | 1 | –
39 | NC1=N[C@@]2(COC1)c1cc(-c3cccnc3)ccc1Oc1cnc(-c3ccnc(F)c3)cc12 [compound 116] | – | 0.6 nM | 0.8 | –
40 | NC1=N[C@@]2(COC1)c1cc(-c3cnccc3F)ccc1Oc1cnc(-c3ccc(F)c(F)c3)cc12 [compound 117] | – | 0.3 nM | 1.6 | –
41 | NC1=N[C@@]2(COC1)c1cc(-c3cnccc3F)ccc1Oc1cnc(-c3ccnc(F)c3)cc12 [compound 118] | – | 0.4 nM | 0.6 | –
